# Results: PubChem BioAssay (NCI)
# Values joined by “and” are separate entries in the source; they are usually repeats but may differ in a detail not shown here. Equal entries are not always repeated.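 The compound was tested at five concentrations on cells cultured in 96-well plates, with a 48-hour exposure period. GI50 marks 50% less growth. The concentration for full growth arrest is given as TGI.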
# How the values were obtained:
# Experiment in all cases: NCI anticancer screen, dose series, 48 h
# ACHN renal = test system: ACHN renal
# CAKI-1 renal = test system: CAKI-1 renal
# CCRF-CEM leukemia = test system: CCRF-CEM leukemia
# DMS 273 small cell lung = test system: DMS 273 small cell lung
# HCT-116 colon = test system: HCT-116 colon
# IGROV1 ovarian = test system: IGROV1 ovarian
# LXFL 529 NSCLC = test system: LXFL 529 NSCLC
# NCI-H23 lung = test system: NCI-H23 lung
# SK-MEL-28 melanoma = test system: SK-MEL-28 melanoma
SMILES,TGI (ACHN renal),TGI (CAKI-1 renal),TGI (CCRF-CEM leukemia),TGI (DMS 273 small cell lung),TGI (HCT-116 colon),TGI (IGROV1 ovarian),TGI (LXFL 529 NSCLC),TGI (NCI-H23 lung),TGI (SK-MEL-28 melanoma),GI50 (CCRF-CEM leukemia),GI50 (ACHN renal),GI50 (CAKI-1 renal),GI50 (DMS 273 small cell lung),GI50 (HCT-116 colon),GI50 (IGROV1 ovarian),GI50 (LXFL 529 NSCLC),GI50 (NCI-H23 lung),GI50 (SK-MEL-28 melanoma)
O=C(Nc1ccccc1)O/N=C1/CCCC/C1=C\c1ccccc1,30.5 µM,29.2 µM,33.1 µM,31.2 µM,26.6 µM,17.7 µM,21.4 µM,48.8 µM,31.8 µM,,,,,,,,,
O=C(c1ccccc1)c1ccc2cccc(O)c2n1,> 100 µM,> 100 µM,51.8 µM,> 100 µM,35.1 µM,> 100 µM,,> 100 µM,> 100 µM,,,,,,,,,
COC(=O)C1Cc2c(n(C)c3ccccc23)C(c2ccccc2)N1 (centres undefined),> 100 µM,> 100 µM,> 100 µM,> 100 µM,> 100 µM,> 100 µM,> 100 µM,> 100 µM,> 100 µM,,,,,,,,,
NC(=O)c1csc(C2O[C@@H](COP(=O)(O)OP(=O)(O)OC[C@H]3OC(n4cnc5c(N)ncnc54)[C@H](O)[C@@H]3O)[C@H](O)[C@@H]2O)n1 (some centres undefined),> 100 µM,> 100 µM,> 100 µM,> 100 µM,,> 100 µM,> 100 µM,> 100 µM,> 100 µM,,,,,,,,,
CC(C)(C)C(=O)Nc1ccccc1Br,> 100 µM,> 100 µM,> 100 µM,> 100 µM,> 100 µM,> 100 µM,> 100 µM,,> 100 µM,,,,,,,,,
COC1CCC2C(=O)CCCC2O1 (centres undefined),> 100 µM,> 100 µM,,> 100 µM,> 100 µM,> 100 µM,> 100 µM,> 100 µM,,,,,,,,,,
CCCCCCC(O)C/C=C/CCCCCC/C(C(=O)OC)=C(/O)C(=O)OCC (centres undefined),> 100 µM,> 100 µM,> 100 µM,> 100 µM,> 100 µM,> 100 µM,> 100 µM,> 100 µM,> 100 µM,,,,,,,,,
CN(C)CCN1N=Nc2cccc3cccc1c23,> 100 µM,> 100 µM,> 78.8 µM,87.7 µM,> 100 µM,> 100 µM,> 100 µM,> 100 µM,> 100 µM,,,,,,,,,
O=[N+]([O-])c1ccc2c(c1)OCCOCCOc1ccc([N+](=O)[O-])cc1OCCOCCO2,> 100 µM,> 100 µM,> 100 µM,> 100 µM,> 100 µM,> 100 µM,,> 100 µM,> 100 µM,,,,,,,,,
Cc1cc(N(CCC#N)CCC#N)ccc1N=Nc1ccccc1[N+](=O)[O-],> 100 µM,> 100 µM,> 100 µM,> 100 µM,,> 100 µM,> 100 µM,> 100 µM,> 100 µM,,,,,,,,,
CC(=O)CC(=O)CCCC(=O)Nc1ccc(Cl)cc1Cl,> 100 µM,> 100 µM,,> 100 µM,> 100 µM,> 100 µM,> 100 µM,> 100 µM,> 100 µM,,,,,,,,,
Cc1ccc(C)c(NC(=O)CC2C(=O)Nc3ccccc3S2(=O)=O)c1 (centres undefined),> 100 µM,> 100 µM,> 100 µM,> 100 µM,> 100 µM,> 100 µM,> 100 µM,> 100 µM,> 100 µM,,,,,,,,,
O=[N+]([O-])c1ccc(OCCNc2cccc3ccccc23)cc1,> 100 µM,> 100 µM,> 100 µM,> 100 µM,> 100 µM,> 100 µM,> 100 µM,> 100 µM,> 100 µM,,,,,,,,,
C=CC[P@@]1(=O)O[C@H](c2ccccc2)C(C)N1C(C)C (some centres undefined),> 100 µM,,> 100 µM,> 100 µM,,> 100 µM,> 100 µM,> 100 µM,> 100 µM,,,,,,,,,
COC(=O)[C@H](C)[C@H]1CC[C@@](C)([C@H]2CC3C(C)(C)[C@H]4CCC(C)=C[C@H]4C[C@@]3(C)O2)OO1 (some centres undefined),23.4 µM,18.2 µM,16.3 µM,26.1 µM,22.3 µM,11.1 µM,7.79 µM,23.6 µM,31 µM,,,,,,,,,
CC1=C2C(=CC(C)(CO)C2O)C(=O)C(C)(O)C12CC2 (centres undefined),0.0132 µM,0.0183 µM,0.0686 µM,0.00892 µM,0.0478 µM,0.106 µM,0.0292 µM,0.00996 µM,0.0138 µM,0.00172 µM,,,,,,,,
CC1(c2ccccc2)CC12C(=O)NC(=O)NC2=O (centres undefined),> 100 µM,> 100 µM,> 100 µM,> 100 µM,> 100 µM,> 100 µM,> 100 µM,> 100 µM,> 100 µM,,,,,,,,,
COc1cccc(/C=C\c2cc(OC)c(OC)c(OC)c2)c1,> 100 µM,56.4 µM,22.8 µM,39.6 µM,> 100 µM,> 100 µM,> 100 µM,9.4 µM,7.15 µM,,,,,,,,,
Cc1c2cc[n+](C)cc2c(C)c2c1[nH]c1ccc(OC(C)C)cc12,> 100 µM,> 35.1 µM,23.9 µM and > 64.7 µM,10.9 µM and 12.5 µM,> 35.8 µM and 20.4 µM,22.3 µM and 29.5 µM,5.04 µM and 11.3 µM,5.08 µM and 7.09 µM,12.4 µM and 17.3 µM,2.59 µM and 15.9 µM,,,,,,,,
N#C[C@]12CC3(CC[C@H]1CC1(C2)OCCO1)OCCO3,> 100 µM,> 100 µM,> 100 µM,> 100 µM,> 100 µM,> 100 µM,> 100 µM,,> 100 µM,,,,,,,,,
N.N.NCCCCN.O=C([O-])CC(=O)[O-].O=C([O-])CC(=O)[O-].[Pt+4].[Pt+4],> 100 µM,> 100 µM,> 100 µM,> 100 µM,> 100 µM,> 100 µM,> 100 µM,> 100 µM,> 100 µM,35.6 µM,26.9 µM,79 µM,89.2 µM,> 100 µM,> 100 µM,> 100 µM,89.1 µM,> 100 µM
